Data from paper PMC12491701, “Discovery of an APP-selective BACE1 inhibitor for Alzheimer's disease” (Neurotherapeutics, 2025).

Tests used:
cathepsin D (CatD) = target: T1, cathepsin D (CatD) (Homo sapiens, UniProt P07339); experiment: Cathepsin D activity assay; assay type: biochemical
T1 construct: purchased R&D Systems 1014-AS
Procedure: The effects of candidate ASBIs on cathepsin D (CatD) activity was assessed using the R&D Systems CatD activity assay kit (Catalog #: 1014-AS and ES001) according to the manufacturer's instructions. For the assay, 4 μL of assay buffer was added to each well, followed by 2 μL of CatD diluted in assay buffer to 5 ng/uL. Then, 2 μL of inhibitor, at concentrations along an 11 pt. two-fold dilution series starting at 50 μM, were added to appropriated wells and incubated for 30 min at room temperature. For all dilutions of inhibitor, drug stock solutions of 10 mM in DMSO were diluted to 50 μM in water; subsequent dilutions were in 2.5 % DMSO. Afterwards, 2 μL of fluorogenic CatD substrate, diluted to 50 μM in assay buffer, were added to each well, after which the signal generated was read every 30 min at 25 °C for 1hr.

[1] = Brain tissue binding assay; assay type: in vitro ADME, mouse; settings: brain homogenate, 2 µM compound
Procedure: The […]
KIAM = (tr – t0) / t0; Pm = (KIAM / MW4) x 1010
Compounds with a Pm >0.85 are predicted to be BBB permeable (CNS+) at pH 7.4.
Brain Tissue Binding Assay
Brain tissue was homogenized in PBS (pH 7.4) (1: 3 weight(mg)/volume(µL)) and the protein concentration determined using the Micro BCA™ Pr otein Assay Kit (Thermo Fisher Scientific, Cat#23235). Brain homogenate was diluted to 20 mg/mL in PBS (pH 7.4) and added to Slide-A-Lyzer™ MINI Dialysis Devices, 10K MWCO dialysis cups (Thermo Fisher Scientific, Cat#PI88401) in a 48-well plate containing PBS (500 µL; pH 7.4). 1 µL of 1 mM compound was added to the brain homogenate (final concentration: 2 µM compound, 0.5% DMSO) and incubated on a rocker for 4.5 hours at 37 °C. 50 µL of brain homogenate (within the dialysis cup) and PBS (within the 48-well plate) were transferred to new microcentrifuge tubes containing 200 µL of quenching reagent (100% acetonitrile) containing internal standard. Solutions were clarified by centrifugation (16,000 x g, 5 min) and the supernatants were transferred to new tubes and lyophilized. Samples were reconstituted in 100 µL of 50/50/0.1 (Water/Acetonitrile/Formic Acid) prior to analysis via LC-MS/MS.
The % of the unbound drug was calculated using the following equation: fubound = [normalized peak area in buffer side / normalized peak area in brain side] x 100

BACE1 cleavage of PSGL1 = target: T2, BACE1 cleavage of PSGL1 (Homo sapiens, UniProt P56817); experiment: PSGL1 assay (SEAP-PSGL1); assay type: cell-based; settings: SEAP-PSGL1, HEK293
T2 construct: with or without full-length wild-type BACE1; expressed in transfected cells; host or cells: HEK293
Procedure: A cDNA construct encoding a human placental secreted alkaline phosphatase (SEAP)-PSGL1 (pAPtag5-PSGL1-β1) fusion protein was transfected in human embryonic kidney (HEK293) cells in a 6-well format with or without full-length wild-type BACE1 using Lipofectamine 2000 (Invitrogen). After 6–8 ​h transfection, the medium was replaced with DMEM containing the test compound at 10, 5, 1, 0.1 and 0.01 ​μM and 10 ​% heat-inactivated fetal bovine serum (FBS), and incubated for 24 ​h. SEAP activity was measured in the conditioned medium.

[2] = system: CHO-7W cells expressing wildtype human APP; experiment: sAPPβ and Aβ1-42 production in CHO-7W cells (AlphaLISA); assay type: cell-based, Chinese hamster
Procedure: Culture Media was collected and frozen. Media was assayed using an AlphaLISA for Aβ1-42 (Perkin Elmer catalog # AL276C), sAPPα (R&D Systems catalog # AF1168 conjugated with Perkin Elmer acceptor beads catalog # 6772001 + 2B3 antibody from IBL catalog # 11088 biotinylated), and sAPPβ (Perkin Elmer AL276-acceptor + IBL catalog # 18957 biotinylated). For the assay, 2 μL of diluted or undiluted sample was added to a 384 well plate, followed by 2 μL of the respective antibody mixture. This was incubated for 1 h. Afterwards, 2 μL of donor beads was added to each well, followed by a 30-min incubation in the dark, after which the signal was read.

T1 sequence (P07339 65-412): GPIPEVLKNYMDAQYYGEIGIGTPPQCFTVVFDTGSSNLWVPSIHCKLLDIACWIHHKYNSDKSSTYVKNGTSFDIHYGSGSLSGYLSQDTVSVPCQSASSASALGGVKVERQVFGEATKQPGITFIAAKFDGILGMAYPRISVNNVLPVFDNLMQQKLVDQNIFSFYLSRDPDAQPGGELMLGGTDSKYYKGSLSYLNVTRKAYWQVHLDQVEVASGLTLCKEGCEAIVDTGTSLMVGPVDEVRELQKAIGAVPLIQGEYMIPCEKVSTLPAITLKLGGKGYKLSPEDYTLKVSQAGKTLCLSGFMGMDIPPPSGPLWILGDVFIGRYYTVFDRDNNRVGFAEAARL
T2 sequence (P56817 46-501): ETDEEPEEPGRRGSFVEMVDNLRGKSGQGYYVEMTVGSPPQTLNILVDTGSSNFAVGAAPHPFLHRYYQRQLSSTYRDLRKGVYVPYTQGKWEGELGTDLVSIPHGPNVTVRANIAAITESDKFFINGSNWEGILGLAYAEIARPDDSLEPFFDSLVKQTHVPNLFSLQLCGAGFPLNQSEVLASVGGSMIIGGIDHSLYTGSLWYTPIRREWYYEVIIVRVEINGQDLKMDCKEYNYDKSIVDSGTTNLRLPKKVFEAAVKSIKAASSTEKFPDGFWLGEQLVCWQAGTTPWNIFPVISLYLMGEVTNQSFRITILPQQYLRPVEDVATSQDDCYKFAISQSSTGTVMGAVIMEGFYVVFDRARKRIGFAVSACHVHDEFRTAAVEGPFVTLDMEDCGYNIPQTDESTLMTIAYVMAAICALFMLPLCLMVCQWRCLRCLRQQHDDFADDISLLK

inhibition of cathepsin D activity (cathepsin D (CatD); in words): Neither analog significantly inhibited
IC50 (cathepsin D (CatD); read-out: Cat D IC50): ~47 µM
Brain tissue binding, funbound [1]: 3.1%
EC50 (BACE1 cleavage of PSGL1): > 10 µM
SMILES: Cc1cc(C2(c3cccc(-c4cncnc4)c3)N=C(N)N(C)C2=O)ccc1OC(F)F (stereo not shown) [FAH65]
sAPPβ reduction [2]: > 90%
sAPPβ production ([2]; 1 μM, 24-h treatment, in words): decrease
Aβ1-42 production ([2]; 1 μM, in words): decrease
